Assay results reported in patent publication US12655127B2, “Fused ring compound as Wee-1 inhibitor” (WIGEN BIOMEDICINE TECHNOLOGY (SHANGHAI) CO., LTD., priority 2021, dated 2026).

Tests used:
[1] = molecular target: recombinant protein Wee-1 (Homo sapiens, UniProt P30291); assay: Inhibition of enzymatic activity of recombinant protein Wee-1 (HTRF); format: biochemical
Method: The inhibitory effect of the compounds on the enzyme activity of recombinant protein Wee-1 was determined by HTRF. The procedures are as follows:
After DMSO or serially diluted compounds (up to 200 nM, 1:5 serially diluted) and recombinant proteins were co-incubated in a kinase buffer at 37° C. for 30 min Fluorescein-PolyGAT and ATP were added, and then the reaction was started by the addition of a substrate. After incubation at room temperature for 90 min, an antibody and a detection solution were added, and after further incubation at room temperature for 60 min, fluorescence values were detected (excitation wavelength: 340 nm, emission wavelengths: 495 and 520 nm). The 520 nm/495 nm fluorescence intensity ratio value was calculated, and compared with that of the DMSO group, and then the inhibition percentages and IC50 values of the compounds were calculated.

MIA PaCa-2 cells [2] = assay: In-vitro anti-proliferative activity on MIA PaCa-2 cells; format: cell-based; conditions: Homo sapiens, 72 h after dosing, intracellular ATP content
Method: MIA PaCa-2 cells were seeded on a 384-well plate at 3000 cells/well. After overnight adherence culture, DMSO or the compounds serially diluted 1:5 from 5 μM were added. The viability was assessed 72 h after dosing by measuring the intracellular ATP content. The inhibition percentage of viable cells by the compounds was calculated by comparing with the DMSO group, and the IC50 value was calculated.

MIA PaCa-2 cells [3] = assay: In-vitro anti-proliferative activity in combination with gemcitabine on MIA PaCa-2 cells; format: cell-based; conditions: with 20 nM gemcitabine, 72 h after dosing, intracellular ATP content
Method: MIA PaCa-2 cells were seeded on a 384-well plate at 3000 cells/well, and 20 nM gemcitabine was added. After overnight adherence culture, DMSO or the compounds serially diluted 1:5 from 100 nM were added. The viability was assessed 72 h after dosing by measuring the intracellular ATP content. The inhibition percentage of viable cells by the compounds was calculated by comparing with the DMSO group, and the IC50 value was calculated.

Sequence of recombinant protein Wee-1 (P30291 whole entry): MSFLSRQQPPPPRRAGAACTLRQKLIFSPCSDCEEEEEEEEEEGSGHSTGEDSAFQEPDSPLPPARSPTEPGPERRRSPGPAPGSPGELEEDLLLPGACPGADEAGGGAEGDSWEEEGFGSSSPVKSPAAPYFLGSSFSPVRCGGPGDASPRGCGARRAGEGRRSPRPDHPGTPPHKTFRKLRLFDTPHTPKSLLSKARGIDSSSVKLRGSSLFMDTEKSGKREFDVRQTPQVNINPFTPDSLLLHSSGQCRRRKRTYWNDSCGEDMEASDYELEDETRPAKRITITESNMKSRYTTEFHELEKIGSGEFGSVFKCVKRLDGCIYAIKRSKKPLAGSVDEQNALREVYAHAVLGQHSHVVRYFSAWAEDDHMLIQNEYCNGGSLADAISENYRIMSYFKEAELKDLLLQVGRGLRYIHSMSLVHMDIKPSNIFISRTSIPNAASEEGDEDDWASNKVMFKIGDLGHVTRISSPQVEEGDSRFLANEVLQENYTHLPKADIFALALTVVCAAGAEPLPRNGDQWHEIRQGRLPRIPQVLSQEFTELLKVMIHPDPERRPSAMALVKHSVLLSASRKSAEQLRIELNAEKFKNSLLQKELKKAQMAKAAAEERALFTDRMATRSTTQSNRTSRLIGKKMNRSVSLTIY

## CN1Cc2cc(Nc3ncc(C#N)c(Nc4cccc(N=S(C)(C)=O)n4)n3)cc3c2[C@@H](CCC3)C1 (single isomer, unassigned) [Compound 3]
[1]
  IC50: ≤ 10 nM
MIA PaCa-2 cells [2]
  IC50: 1090 nM
MIA PaCa-2 cells [3]
  IC50: 6.4 nM

## CN1Cc2cc(Nc3ncc(C#N)c(Nc4cccc(N=S(C)(C)=O)n4)n3)cc3c2C(CCC3)C1 (stereo not shown) [Compound 1]
[1]
  IC50: ≤ 10 nM
MIA PaCa-2 cells [2]
  IC50: 236 nM
MIA PaCa-2 cells [3]
  IC50: 1.9 nM

## CN1Cc2cc(Nc3ncc(C#N)c(Nc4cccc(N=S(C)(C)=O)n4)n3)cc3c2C(C)(CCC3)C1 (stereo not shown) [Compound 4]
[1]
  IC50: ≤ 10 nM
MIA PaCa-2 cells [2]
  IC50: 968 nM
MIA PaCa-2 cells [3]
  IC50: 2.4 nM

## CN1Cc2cc(Nc3ncc(C#N)c(Nc4cccc(N=S(C)(C)=O)n4)n3)cc3c2[C@](C)(CCC3)C1 [Compound 5]
[1]
  IC50: ≤ 10 nM
MIA PaCa-2 cells [2]
  IC50: 1180 nM
MIA PaCa-2 cells [3]
  IC50: 2.1 nM

## CN1Cc2cc(Nc3ncc(C#N)c(Nc4cccc(N=S(C)(C)=O)n4)n3)cc3c2[C@@](C)(CCC3)C1 [Compound 6]
[1]
  IC50: ≤ 10 nM
MIA PaCa-2 cells [2]
  IC50: 910 nM
MIA PaCa-2 cells [3]
  IC50: 5.3 nM

## COc1c(Nc2ncc(C#N)c(Nc3cccc(N=S(C)(C)=O)n3)n2)cc2c3c1CCCC3CN(C)C2 (stereo not shown) [Compound 49]
[1]
  IC50: 10 to 50 nM
MIA PaCa-2 cells [2]
  IC50: > 5000 nM
MIA PaCa-2 cells [3]
  IC50: > 100 nM

## CN1Cc2cc(Nc3ncc(C#N)c(Nc4cccc(N=S(C)(C)=O)n4)n3)cc3c2C(CC3)C1 (stereo not shown) [Compound 50]
[1]
  IC50: 10 to 50 nM
MIA PaCa-2 cells [2]
  IC50: 148 nM
MIA PaCa-2 cells [3]
  IC50: > 100 nM

## CN1Cc2cc(Nc3ncc(C#N)c(Nc4cccc(N=S(C)(C)=O)n4)n3)cc3c2C(CCO3)C1 (stereo not shown) [Compound 64]
[1]
  IC50: ≤ 10 nM
MIA PaCa-2 cells [2]
  IC50: 400 nM
MIA PaCa-2 cells [3]
  IC50: 3.5 nM

## CN1Cc2cc(Nc3ncc(C#N)c(Nc4cccc(N=S(C)(C)=O)n4)n3)cc3c2C1CCC3 (stereo not shown) [Compound 87]
[1]
  IC50: ≤ 10 nM
MIA PaCa-2 cells [2]
  IC50: 184 nM
MIA PaCa-2 cells [3]
  IC50: 1.6 nM

## CN1Cc2cc(Nc3ncc(C#N)c(Nc4cccc(N=S(C)(C)=O)c4)n3)cc3c2C(CCC3)C1 (stereo not shown) [Compound 101]
[1]
  IC50: ≤ 10 nM

## CN1Cc2cc(Nc3ncc(C#N)c(Nc4ccnc(N=S(C)(C)=O)c4)n3)cc3c2C(CCC3)C1 (stereo not shown) [Compound 102]
[1]
  IC50: ≤ 10 nM

## CN1Cc2cc(Nc3ncc(C#N)c(Nc4cncc(N=S(C)(C)=O)c4)n3)cc3c2C(CCC3)C1 (stereo not shown) [Compound 103]
[1]
  IC50: ≤ 10 nM

## CN1Cc2cc(Nc3ncc(C#N)c(Nc4cc(N=S(C)(C)=O)ccn4)n3)cc3c2C(CCC3)C1 (stereo not shown) [Compound 104]
[1]
  IC50: ≤ 10 nM

## CN1Cc2cc(Nc3ncc(C#N)c(Nc4cncc(N=S(C)(C)=O)n4)n3)cc3c2C(CCC3)C1 (stereo not shown) [Compound 105]
[1]
  IC50: ≤ 10 nM
MIA PaCa-2 cells [2]
  IC50: 441 nM
MIA PaCa-2 cells [3]
  IC50: 2.1 nM

## CN1Cc2cc(Nc3ncc(C#N)c(Nc4ccnc(N=S(C)(C)=O)n4)n3)cc3c2C(CCC3)C1 (stereo not shown) [Compound 106]
[1]
  IC50: ≤ 10 nM

## CN1Cc2cc(Nc3ncc(C#N)c(Nc4nccc(N=S(C)(C)=O)n4)n3)cc3c2C(CCC3)C1 (stereo not shown) [Compound 107]
[1]
  IC50: ≤ 10 nM

## CN1Cc2cc(Nc3ncc(C#N)c(Nc4cc5ccccc5c(N=S(C)(C)=O)n4)n3)cc3c2C(CCC3)C1 (stereo not shown) [Compound 108]
[1]
  IC50: ≤ 10 nM
MIA PaCa-2 cells [2]
  IC50: 225 nM
MIA PaCa-2 cells [3]
  IC50: 11 nM

## CN1Cc2cc(Nc3ncc(C#N)c(Nc4ccc(F)c(N=S(C)(C)=O)n4)n3)cc3c2C(CCC3)C1 (stereo not shown) [Compound 110]
MIA PaCa-2 cells [2]
  IC50: 186 nM
MIA PaCa-2 cells [3]
  IC50: 1.1 nM

## CN1Cc2cc(Nc3ncc(C#N)c(Nc4cc(F)cc(N=S(C)(C)=O)n4)n3)cc3c2C(CCC3)C1 (stereo not shown) [Compound 111]
[1]
  IC50: ≤ 10 nM

## CN1Cc2cc(Nc3ncc(C#N)c(-n4ccc5c(N=S(C)(C)=O)cccc54)n3)cc3c2C(CCC3)C1 (stereo not shown) [Compound 113]
[1]
  IC50: ≤ 10 nM

## CN1Cc2cc(Nc3ncc(C#N)c(N4CCc5c(N=S(C)(C)=O)cccc54)n3)cc3c2C(CCC3)C1 (stereo not shown) [Compound 114]
[1]
  IC50: ≤ 10 nM

## CN1Cc2cc(Nc3ncc(C#N)c(-c4c[nH]c5c(N=S(C)(C)=O)cccc45)n3)cc3c2C(CCC3)C1 (stereo not shown) [Compound 115]
[1]
  IC50: ≤ 10 nM

## CN1Cc2cc(Nc3ncc(C#N)c(-c4cn(C)c5c(N=S(C)(C)=O)cccc45)n3)cc3c2C(CCC3)C1 (stereo not shown) [Compound 116]
[1]
  IC50: ≤ 10 nM

## CN1Cc2cc(Nc3ncc(C#N)c(-n4cnc5c(N=S(C)(C)=O)cccc54)n3)cc3c2C(CCC3)C1 (stereo not shown) [Compound 117]
[1]
  IC50: ≤ 10 nM

## CN1Cc2cc(Nc3ncc(C#N)c(Nc4nc(N=S(C)(C)=O)cc5[nH]ccc45)n3)cc3c2C(CCC3)C1 (stereo not shown) [Compound 118]
[1]
  IC50: ≤ 10 nM

## CN1Cc2cc(Nc3ncc(C#N)c(Nc4nc(N=S(C)(C)=O)cc5c4CCN5)n3)cc3c2C(CCC3)C1 (stereo not shown) [Compound 119]
[1]
  IC50: ≤ 10 nM

## CN1Cc2cc(Nc3ncc(C#N)c(Nc4cc5c(c(N=S(C)(C)=O)n4)CCC5)n3)cc3c2C(CCC3)C1 (stereo not shown) [Compound 120]
[1]
  IC50: ≤ 10 nM

## C=Cc1cc(N=S(C)(C)=O)nc(Nc2nc(Nc3cc4c5c(c3)CN(C)CC5CCC4)ncc2C#N)c1 (stereo not shown) [Compound 122]
[1]
  IC50: ≤ 10 nM

## COc1ccc(Nc2nc(Nc3cc4c5c(c3)CN(C)CCC5CCC4)ncc2C#N)nc1N=S(C)(C)=O (stereo not shown) [Compound 123]
[1]
  IC50: ≤ 10 nM

## C=Cc1cc(N=S(C)(C)=O)nc(Nc2nc(Nc3cc4c5c(c3)CC(N(C)C)CCC5CCC4)ncc2C#N)c1 (stereo not shown) [Compound 124]
[1]
  IC50: ≤ 10 nM

## CN1Cc2cc(Nc3ncc(C#N)c(Nc4cccc(N=S(C)(C)=O)n4)n3)cc3c2C2(CCC3)CC12 (stereo not shown) [Compound 125]
[1]
  IC50: ≤ 10 nM

## CN1Cc2cc(Nc3ncc(C#N)c(Nc4cccc(N=S(C)(C)=O)n4)n3)cc3c2C(C1)CN(C)C3 [Compound 126]
[1]
  IC50: ≤ 10 nM

## CN1Cc2cc(Nc3ncc(C#N)c(Nc4cccc(N=S(C)(C)=O)n4)n3)cc3c2C(CNC3)C1 (stereo not shown) [Compound 127]
[1]
  IC50: ≤ 10 nM

## CC(=O)N1Cc2cc(Nc3ncc(C#N)c(Nc4cccc(N=S(C)(C)=O)n4)n3)cc3c2C(CN(C)C3)C1 (stereo not shown) [Compound 128]
[1]
  IC50: ≤ 10 nM

## CN1Cc2cc(Nc3ncc(C#N)c(Nc4cccc(N=S(C)(C)=O)n4)n3)cc3c2C(C1)N(C)CC3 (stereo not shown) [Compound 129]
[1]
  IC50: ≤ 10 nM

## CN1Cc2cc(Nc3ncc(C#N)c(Nc4cccc(N=S(C)(C)=O)n4)n3)cc3c2C(C1)NCC3 (stereo not shown) [Compound 130]
[1]
  IC50: ≤ 10 nM

## CN1Cc2cc(Nc3ncc(C#N)c(Nc4cccc(N=S(C)(C)=O)n4)n3)cc3c2C(CCN3C)C1 (stereo not shown) [Compound 131]
[1]
  IC50: ≤ 10 nM

## CN1Cc2cc(Nc3ncc(C#N)c(Nc4cccc(N=S(C)(C)=O)n4)n3)cc3c2C(CCN3)C1 (stereo not shown) [Compound 132]
[1]
  IC50: ≤ 10 nM

## CN1Cc2cc(Nc3ncc(C#N)c(Nc4cccc(N=S(C)(C)=O)n4)n3)cc3c2C(CCC3)C1(C)C (stereo not shown) [Compound 133]
[1]
  IC50: ≤ 10 nM

## [2H]C([2H])([2H])N1Cc2cc(Nc3ncc(C#N)c(Nc4cccc(N=S(C)(C)=O)n4)n3)cc3c2C(CCC3)C1 (stereo not shown) [Compound 134]
[1]
  IC50: ≤ 10 nM

## [2H]c1ccc(Nc2nc(Nc3cc4c5c(c3)CN(C)CC5CCC4)ncc2C#N)nc1N=S(C)(C)=O (stereo not shown) [Compound 135]
[1]
  IC50: ≤ 10 nM

## [2H]C([2H])([2H])S(=O)(=Nc1cccc(Nc2nc(Nc3cc4c5c(c3)CN(C)CC5CCC4)ncc2C#N)n1)C([2H])([2H])[2H] (stereo not shown) [Compound 136]
[1]
  IC50: ≤ 10 nM

## [2H]C1([2H])C2CCCc3cc(Nc4ncc(C#N)c(Nc5cccc(N=S(C)(C)=O)n5)n4)cc(c32)CN1C (stereo not shown) [Compound 279]
[1]
  IC50: ≤ 10 nM

## [2H]C1([2H])c2cc(Nc3ncc(C#N)c(Nc4cccc(N=S(C)(C)=O)n4)n3)cc3c2C(CCC3)CN1C (stereo not shown) [Compound 280]
[1]
  IC50: ≤ 10 nM

## CN1Cc2cc(Nc3ncc(C#N)c(Nc4cccc(N=S(C)(C)=O)n4)n3)cc3c2C(CCC3O)C1 (stereo not shown) [Compound 289]
[1]
  IC50: ≤ 10 nM

## CN1Cc2cc(Nc3ncc(C#N)c(Nc4cccc(N=S(C)(C)=O)n4)n3)cc3c2C(CCC3N)C1 (stereo not shown) [Compound 290]
[1]
  IC50: ≤ 10 nM

## CN1Cc2cc(Nc3ncc(C#N)c(Nc4cccc(N=S(C)(C)=O)n4)n3)cc3c2C(CC(O)C3)C1 (stereo not shown) [Compound 291]
[1]
  IC50: ≤ 10 nM

## CN1Cc2cc(Nc3ncc(C#N)c(Nc4cccc(N=S(C)(C)=O)n4)n3)cc3c2C(CC(N)C3)C1 (stereo not shown) [Compound 292]
[1]
  IC50: ≤ 10 nM

## CN1Cc2cc(Nc3ncc(C#N)c(Nc4cccc(N=S(C)(C)=O)n4)n3)cc3c2C(C1)C(O)CC3 (stereo not shown) [Compound 293]
[1]
  IC50: ≤ 10 nM

## CN1Cc2cc(Nc3ncc(C#N)c(Nc4cccc(N=S(C)(C)=O)n4)n3)cc3c2C(C1)C(N)CC3 (stereo not shown) [Compound 294]
[1]
  IC50: ≤ 10 nM
